Measurements from the supplement of paper PMC10307832.

How the values were obtained:
Test in all cases: relative viability (nuclei count vs DMSO), 5 days (fraction); higher = more cells survive
[1] = compound: CCn1c(-c2nonc2N)nc2c(C#CC(C)(C)O)ncc(OC[C@H]3CCCNC3)c21 + COc1cccc2cc(-c3nc([C@H]4CC[C@H](C(=O)O)CC4)n4ncnc(N)c34)[nH]c12 [OSI-027] (partner 0.5 µM)
In short: (§1)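 The day after seeding in 1536-well plates, lung cancer cell lines were treated by pin tool with a single drug, or with a fixed anchor-drug dose together with five library-drug doses (not always all listed) in √10 steps. After 5 days, a combined fix-and-stain solution (final 0.05% Triton X-100, 1% formaldehyde, 1 ug/ml Hoechst) was added. Nuclei counted on 4× images gave relative viability as treated counts over vehicle counts, reported as the median of duplicate plates.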

BAM7 + Pemetrexed = compound: CCOC1=CC=CC=C1N=NC2=C(NN(C2=O)C3=NC(=CS3)C4=CC=CC=C4)C [BAM7] + Nc1nc2[nH]cc(CCc3ccc(C(=O)N[C@@H](CCC(=O)O)C(=O)O)cc3)c2c(=O)[nH]1 [Pemetrexed] (partner 0.2 µM)
In short: as §1

[2] = compound: CCn1c(-c2nonc2N)nc2c(C#CC(C)(C)O)ncc(OC[C@H]3CCCNC3)c21 + Nc1ncn([C@H]2C[C@H](O)[C@@H](CO)O2)c(=O)n1 [Decitabine] (partner 2 µM)
In short: as §1

[3] = compound: CCn1c(-c2nonc2N)nc2c(C#CC(C)(C)O)ncc(OC[C@H]3CCCNC3)c21 + O=C(c1cc(Cc2n[nH]c(=O)c3ccccc23)ccc1F)N1CCN(C(=O)C2CC2)CC1 [Olaparib] (partner 8 µM)
In short: as §1

Row | Cell Line | relative viability ([1]; first compound 0.01 µM) | relative viability ([1]; first compound 0.03162 µM) | relative viability ([1]; first compound 0.1 µM) | relative viability ([1]; first compound 0.3162 µM) | relative viability ([1]; first compound 1 µM) | relative viability (BAM7 + Pemetrexed; first compound 0.5 µM) | relative viability (BAM7 + Pemetrexed; first compound 5 µM) | relative viability (BAM7 + Pemetrexed; first compound 15.81 µM) | relative viability (BAM7 + Pemetrexed; first compound 50 µM) | relative viability ([2]; first compound 0.01 µM) | relative viability ([2]; first compound 0.03162 µM) | relative viability ([2]; first compound 0.1 µM) | relative viability ([2]; first compound 0.3162 µM) | relative viability ([2]; first compound 1 µM) | relative viability ([3]; first compound 0.01 µM) | relative viability ([3]; first compound 0.03162 µM) | relative viability ([3]; first compound 0.1 µM) | relative viability ([3]; first compound 0.3162 µM) | relative viability ([3]; first compound 1 µM)
1 | NCI-H661 | 0.659 | 0.781 | 0.644 | 0.553 | 0.501 | 0.949 | 0.973 | 0.921 | 0.917 | 0.504 | 0.591 | 0.513 | 0.561 | 0.543 | 0.713 | 0.755 | 0.836 | 0.771 | 0.758
2 | NCI-H1793 | 0.279 | 0.29 | 0.232 | 0.251 | 0.252 | 0.931 | 0.728 | 0.809 | 1.13 | 0.478 | 0.522 | – | 0.534 | 0.503 | 0.765 | 1.26 | – | 0.742 | 0.933
3 | NCI-H1734 | 0.574 | 0.632 | 0.538 | 0.478 | 0.382 | 0.437 | 0.415 | 0.382 | 0.411 | 0.453 | 0.496 | 0.546 | 0.465 | 0.484 | 0.625 | 0.573 | 0.575 | 0.555 | 0.618
4 | LXF-289 | 0.778 | 0.779 | 0.808 | 0.759 | 0.804 | 1.01 | 0.994 | 0.918 | 0.865 | 0.42 | 0.369 | 0.352 | 0.35 | 0.364 | 1.06 | 1.1 | 1.03 | 0.973 | 1.05
5 | H3255 | 0.683 | 0.658 | 0.607 | 0.539 | 0.528 | 0.578 | 0.543 | 0.548 | 0.545 | 0.614 | 0.58 | 0.639 | 0.546 | 0.6 | 0.571 | 0.59 | 0.638 | 0.483 | 0.564
6 | 201T | 0.675 | 0.644 | 0.625 | 0.719 | 0.754 | 0.299 | 0.324 | 0.327 | 0.313 | 0.879 | 0.822 | 0.888 | 0.837 | 0.866 | 0.855 | 0.861 | 0.838 | 0.801 | 0.827
7 | NCI-H2126 | 0.749 | 0.69 | 0.675 | 0.624 | 0.677 | 0.746 | 0.672 | 0.574 | 0.641 | 0.505 | 0.608 | 0.583 | 0.54 | 0.548 | 0.917 | 0.927 | 0.977 | 0.893 | 0.95
8 | HOP-62 | 0.834 | 0.748 | 0.695 | 0.769 | 0.78 | 0.269 | 0.356 | 0.328 | 0.371 | 0.18 | 0.22 | 0.246 | 0.193 | 0.226 | 0.396 | 0.419 | 0.445 | 0.521 | 0.603
9 | NCI-H520 | 0.221 | 0.266 | 0.208 | 0.183 | 0.173 | 0.696 | 0.776 | 0.626 | 0.569 | 0.483 | 0.47 | 0.387 | 0.359 | 0.332 | 0.337 | 0.341 | 0.236 | 0.194 | 0.169
10 | NCI-H1755 | 0.704 | 0.697 | 0.704 | 0.69 | 0.638 | 0.401 | 0.417 | 0.423 | 0.408 | 0.727 | 0.753 | 0.673 | 0.669 | 0.722 | 0.969 | 0.891 | 0.873 | 0.847 | 0.917
11 | NCI-H2023 | 0.369 | 0.411 | 0.307 | 0.202 | 0.195 | 0.229 | 0.248 | 0.174 | 0.286 | 0.207 | 0.202 | 0.221 | 0.245 | 0.236 | 0.501 | 0.454 | 0.437 | 0.381 | 0.475
12 | NCI-H2009 | 0.577 | 0.658 | 0.578 | 0.569 | 0.584 | 1.03 | 1.06 | 1.03 | 1.01 | 0.35 | 0.469 | 0.354 | 0.342 | 0.39 | 0.655 | 0.673 | 0.682 | 0.685 | 0.75
